Consider 17 compounds from patent US10752587B2, “Homobispiperidinyl derivatives as liver X receptor beta agonists, compositions and their use” (Merck Sharp & Dohme Corp., priority 2015, dated 2020).

Read-outs that look alike come from different tables or passages of the source.

In test [1] the target is T1, glutathione-S-transferase (GST) tagged LXRalpha LBD (ligand binding domain) (Homo sapiens, UniProt Q13133).
T1 construct: purchased Invitrogen pv4655
T1 sequence (Q13133 209-447 limits assumed): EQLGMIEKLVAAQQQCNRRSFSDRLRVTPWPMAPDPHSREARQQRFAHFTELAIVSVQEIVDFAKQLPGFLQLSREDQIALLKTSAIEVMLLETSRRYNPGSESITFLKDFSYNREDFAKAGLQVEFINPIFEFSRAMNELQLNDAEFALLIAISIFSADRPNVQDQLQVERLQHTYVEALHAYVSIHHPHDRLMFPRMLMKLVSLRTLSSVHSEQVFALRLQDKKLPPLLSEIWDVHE
As to the kind of experiment: LanthaScreen TR-FRET Liver X Receptor Coactivator Assay, co-activator recruitment to LXRalpha LBD. In kind it is biochemical. As to conditions: for Emax: read-out: LXR alpha Activity @ max dose (%); for LXR alpha IP (nM) / EC50: potency (Inflection Point, IP), co-activator recruitment to LXRalpha LBD, in relation to T0901317; for EC50: read-out: LXR alpha IP. The method in brief: (§1)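 Readout is time-resolved FRET between a terbium anti-GST antibody bound to the LBD and a fluorescein-tagged coactivator peptide recruited on ligand binding. Plates were incubated at room temperature before reading. Potency (IP) and efficacy (Emax) are referenced to T0901317.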

Test [2] deals with T2, glutathione-S-transferase (GST) tagged LXRbeta LBD (ligand binding domain) (Homo sapiens, UniProt P55055).
T2 construct: purchased Invitrogen pv4658.pps
T2 sequence (P55055 222-460 limits assumed): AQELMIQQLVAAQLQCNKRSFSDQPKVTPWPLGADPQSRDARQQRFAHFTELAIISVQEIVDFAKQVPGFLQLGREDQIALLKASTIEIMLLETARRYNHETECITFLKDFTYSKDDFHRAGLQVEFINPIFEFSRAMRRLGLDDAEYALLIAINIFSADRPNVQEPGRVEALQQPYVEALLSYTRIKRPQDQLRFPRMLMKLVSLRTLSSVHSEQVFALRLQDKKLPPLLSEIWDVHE
As to the kind of experiment: LanthaScreen TR-FRET Liver X Receptor Coactivator Assay, co-activator recruitment to LXRbeta LBD. In kind it is biochemical. To be noted: for Emax: read-out: LXR beta Activity @ max dose (%); for EC50: potency (Inflection Point, IP), co-activator recruitment to LXRbeta LBD, in relation to T0901317. A digest of the protocol:
as §1
On the technique in general: Time-resolved FRET reads energy transfer from a long-lived donor to a nearby acceptor.

[3] abbreviates: efficacy at max dose, in relation to reference dual agonist T0901317.

Turning to `CCOc1cccc([C@@](O)(C(=O)N2CCC(CC3CCN(c4ccc(C(=O)N(C)C)c(Cl)c4)CC3)CC2)C(F)(F)F)c1` [Example 2-92, 2-chloro-4-[4-({1-[(2R)-2-(3-ethoxyphenyl)-3,3,3-trifluoro-2-hydroxy-propanoyl]piperidin-4-yl}methyl)piperidin-1-yl]-N,N-dimethyl-benzamide], the Emax in test [1] (setting [3]) came to 3%; in test [2] (setting [3]), 56%. Further, the “LXR alpha IP (nM)” value in test [1] was “NO IP”. Further, the EC50 in test [2] (read-out: LXR beta IP) stood at 12 nM.
The matching figures for `CN(C)C(=O)c1ccc(N2CCC(CC3CCN(C(=O)[C@](O)(c4cc(Cl)cc(Cl)c4)C(F)(F)F)CC3)CC2)cc1Cl` [Example 2-93, 2-chloro-4-[4-({1-[(2R)-2-(3,5-dichloro-phenyl)-3,3,3-trifluoro-2-hydroxy-propanoyl]piperidin-4-yl}methyl)piperidin-1-yl]-N,N-dimethyl-benzamide]: 7%, 59%, “NO IP” and 5 nM.
With `CN(C)C(=O)c1ccc(N2CCC(CC3CCN(C(=O)[C@](O)(c4cc(F)cc(F)c4)C(F)(F)F)CC3)CC2)cc1Cl` [Example 2-94, 2-chloro-4-[4-({1-[(2R)-2-(3,5-difluoro-phenyl)-3,3,3-trifluoro-2-hydroxy-propanoyl]piperidin-4-yl}methyl)piperidin-1-yl]-N,N-dimethyl-benzamide], the Emax came to 48% in test [1] (setting [3]) and 89% in test [2] (setting [3]). Also, the EC50 in test [1] turned out to be 50 nM; in test [2] (read-out: LXR beta IP) it was 4 nM.
The matching figures for `CC(C)c1cccc([C@@](O)(C(=O)N2CCC(CC3CCN(c4ccc(C(=O)N(C)C)c(Cl)c4)CC3)CC2)C(F)(F)F)c1` [Example 2-95, 2-chloro-N,N-dimethyl-4-{4-[(1-{(2R)-3,3,3-trifluoro-2-hydroxy-2-[3-(1-methylethyl)phenyl]propanoyl}piperidin-4-yl)methyl]piperidin-1-yl}benzamide]: 15%, 50%, 341 nM and 6 nM.
For `CN(C)C(=O)c1ccc(N2CCC(CC3CCN(C(=O)[C@](O)(c4cccc(C5CC5)c4)C(F)(F)F)CC3)CC2)cc1Cl` [Example 2-96, 2-chloro-4-[4-({1-[(2R)-2-(3-cyclopropyl-phenyl)-3,3,3-trifluoro-2-hydroxy-propanoyl]piperidin-4-yl}methyl)piperidin-1-yl]-N,N-dimethyl-benzamide], in that order: 20%, 63%, 66 nM and 4 nM.
For the compound `CN(C)C(=O)c1ccc(N2CCC(CC3CCN(C(=O)[C@](O)(c4cccc(OCC(F)(F)F)c4)C(F)(F)F)CC3)CC2)cc1Cl` [Example 2-97, 2-chloro-N,N-dimethyl-4-{4-[(1-{(2R)-3,3,3-trifluoro-2-hydroxy-2-[3-(2,2,2-trifluoroethoxy)phenyl]propanoyl}piperidin-4-yl)methyl]piperidin-1-yl}benzamide], the Emax in test [1] (setting [3]) was determined as 0%; in test [2] (setting [3]), 20%. Moreover, in test [1], the “LXR alpha IP (nM)” value is “NO IP”. Further, the EC50 in test [2] (read-out: LXR beta IP) was 40 nM.
The matching figures for `CN(C)C(=O)c1ccc(N2CCC(CC3CCN(C(=O)[C@](O)(c4cccc(N(C)C)c4)C(F)(F)F)CC3)CC2)cc1Cl` [Example 2-98]: 0%, 20%, “NO IP” and 8 nM.
For `CN(C)C(=O)c1ccc(N2CCC(CC3CCN(C(=O)[C@](O)(c4cccc(OC5CC5)c4)C(F)(F)F)CC3)CC2)cc1Cl` [Example 2-99, 2-chloro-4-{4-[(1-{(2R)-2-[3-(cyclopropyloxy)phenyl]-3,3,3-trifluoro-2-hydroxy-propanoyl}piperidin-4-yl)methyl]piperidin-1-yl}-N,N-dimethyl-benzamide], in that order: 0%, 37%, “NO IP” and 8 nM.
For `COc1cc(Cl)cc([C@@](O)(C(=O)N2CCC(CC3CCN(c4ccc(C(=O)N(C)C)c(Cl)c4)CC3)CC2)C(F)(F)F)c1` [Example 2-100, 2-chloro-4-[4-({1-[(2R)-2-(3-chloro-5-methoxy-phenyl)-3,3,3-trifluoro-2-hydroxy-propanoyl]piperidin-4-yl}methyl)piperidin-1-yl]-N,N-dimethyl-benzamide], in that order: 0%, 24%, “NO IP” and 6 nM.
For the compound `CN(C)C(=O)c1ccc(N2CCC(CC3CCN(C(=O)[C@](O)(c4cc(F)cc(Cl)c4)C(F)(F)F)CC3)CC2)cc1Cl` [Example 2-102, 2-chloro-4-[4-({1-[(2R)-2-(3-chloro-5-fluorophenyl)-3,3,3-trifluoro-2-hydroxy-propanoyl]piperidin-4-yl}methyl)piperidin-1-yl]-N,N-dimethyl-benzamide], the Emax in test [1] (setting [3]) stood at 36%; in test [2] (setting [3]) it was 81%. The values for the EC50 in test [1] and in test [2] (read-out: LXR beta IP) were 29 nM and 2 nM, respectively.
Regarding `COc1cccc([C@@](N)(C(=O)N2CCC(CC3CCN(c4ccc(C(=O)N(C)C)c(Cl)c4)CC3)CC2)C(F)(F)F)c1` [Example 2-103, 4-[4-({1-[(2R)-2-amino-3,3,3-trifluoro-2-(3-methoxyphenyl)propanoyl]piperidin-4-yl}methyl)piperidin-1-yl]-2-chloro-N,N-dimethyl-benzamide], the figures for the Emax in test [1] (setting [3]) and in test [2] (setting [3]) were 0% and 16%, respectively. Also, the “LXR alpha IP (nM)” value in test [1] is recorded as “NO IP”. The EC50 in test [2] (read-out: LXR beta IP) stood at 181 nM.
As for `COc1cccc(C(=O)C(=O)N2CCC(CC3CCN(c4ccc(C(=O)N(C)C)c(Cl)c4)CC3)CC2)c1` [Example 2-104, 2-chloro-4-[4-({1-[(3-methoxyphenyl) (oxo)acetyl]piperidin-4-yl}methyl)piperidin-1-yl]-N,N-dimethyl-benzamide], the Emax in test [1] (setting [3]) was 3%; in test [2] (setting [3]) it was 31%. For the same compound, the “LXR alpha IP (nM)” value in test [1] was “NO IP”. In addition, in test [2] (read-out: LXR beta IP), the EC50 came to 409 nM.
Consider `CN(C)C(=O)c1ccc(N2CCC(CC3CCN(C(=O)[C@](O)(c4ccccc4)C4CC4)CC3)CC2)cc1Cl` [Example 2-105, 2-chloro-4-[4-({1-[(2R)-2-cyclopropyl-2-hydroxy-2-phenylacetyl]piperidin-4-yl}methyl)piperidin-1-yl]-N,N-dimethyl-benzamide], for which, in test [1], the “LXR alpha IP (nM)” value is listed as “NO IP” and the Emax is 12%. Besides, the EC50 in test [2] (LXR beta IP (nM)) stood at 21 nM. In addition, the Emax in test [2] was 48%.
Take `COc1cccc([C@@](O)(C(=O)N2CCC(CC3CCN(c4ccc(C(=O)N(C)C)c(Cl)c4)CC3)CC2)C(F)F)c1` [Example 2-106, 2-chloro-4-[4-({1-[(2R)-3,3-difluoro-2-hydroxy-2-(3-methoxy-phenyl)propanoyl]piperidin-4-yl}methyl)piperidin-1-yl]-N,N-dimethyl-benzamide]: the Emax in test [1] (setting [3]) was 0%; in test [2] (setting [3]), 19%. The “LXR alpha IP (nM)” value in test [1] was “NO IP”. The EC50 in test [2] (read-out: LXR beta IP) was 10 nM.
With `COc1cc(C)cc([C@@](O)(C(=O)N2CCC(CC3CCN(c4ccc(C(=O)N(C)C)c(Cl)c4)CC3)CC2)C(F)(F)F)c1` [Example 2-107, 2-chloro-N,N-dimethyl-4-[4-({1-[(2R)-3,3,3-trifluoro-2-hydroxy-2-(3-methoxy-5-methylphenyl)propanoyl]piperidin-4-yl}methyl)piperidin-1-yl]benzamide], the Emax stood at 4% in test [1] (setting [3]) and 14% in test [2] (setting [3]). Also, the EC50 came out at 309 nM in test [1] and 238 nM in test [2] (read-out: LXR beta IP).
For the compound `CCOc1cccc([C@@](O)(C(=O)N2CCC(CC3CCN(c4ccc(C(=O)N(C)C)c(Cl)c4)CC3)CC2)C(F)F)c1` [Example 2-108, 2-chloro-4-[4-({1-[(2R)-2-(3-ethoxy-phenyl)-3,3-difluoro-2-hydroxy-propanoyl]piperidin-4-yl}methyl)piperidin-1-yl]-N,N-dimethyl-benzamide], the Emax came out at 0% in test [1] (setting [3]) and 10% in test [2] (setting [3]). Also, in test [1], the “LXR alpha IP (nM)” value is given as “NO IP”. For the same compound, the EC50 in test [2] (read-out: LXR beta IP) amounted to 33 nM.
As to `CC(C)C(O)(C(=O)N1CCC(CC2CCN(c3ccc(C(=O)N(C)C)c(Cl)c3)CC2)CC1)c1ccccc1` (centres unmarked) [Example 2-109, 2-chloro-4-(4-{[1-(2-hydroxy-3-methyl-2-phenylbutanoyl)piperidin-4-yl]methyl}piperidin-1-yl)-N,N-dimethyl-benzamide], the Emax turned out to be 26% in test [1] (setting [3]) and 75% in test [2] (setting [3]). Moreover, the values for the EC50 in test [1] and in test [2] (read-out: LXR beta IP) were 982 nM and 72 nM, respectively.
